In patent US6491922B1, “Methods and compounds for treating autoimmune and vascular disease” (Cornell Research Foundation, Inc., priority 1996, dated 2002):

Columns and labels:
endothelial cells [1] = test: ^3H-lyso-PI binding to endothelial cells; parameters: species or system human; conditions: 1 μM, 45 min, 25° C.; 10^6 cells per ml
Experimental: To evaluate whether lyso-PI may directly bind to endothelial cells, endothelial cells (10^6 per ml) were incubated with ^3H-lyso-PI (1 μM [specific activity, ˜10,000 cpm/nmole], 45 min, 25° C.). As a control, endothelial cells were pretreated with LPG (20 μM, 15 min, 25° C.) before the incubation with ^3H-lyso-PI. Following incubation, the cell suspension was layed onto silicone oil (Silicones FC-50, General Electric, Waterford, N.Y.) and cell-bound ^3H-lyso-PI was separated from free-^3H-lyso-PI by centrifugation (10,000 g, 10 min, room temperature). The amount of ^3H-lyso-PI in the cell pellet and in the supernatant were solubilized in Ecoscint (National Diagnostics, Highland Park, N.J.) and quantitated by a β-emission counter (Beckman Instruments, Palo Alto, Calif.).

[2] = test system: human umbilical vein endothelial cells; test: Competition for LPG binding by LPG fragments (FACS); conditions: for competition with intact LPG for binding to endothelial cells: fragment 10 μM prior to intact LPG 1 μM; for Percent Inhibition: pretreatment with fragment 10 μM 15 min before intact LPG 1 μM, 15 min, 37° C., means ± SE of 3 experiments
Experimental: To address whether the lyso-PI and core-PI fragments may mediate cell binding, an indirect approach was used. Endothelial cells (10^6/ml) obtained by mild collagenase treatment were first incubated with either lyso-PI or core-PI (10 μM, 15 min 37° C.) prior to the addition of intact LPG (1 μM, 15 min 37° C.); PGM and PG (10 μM, 15 min 37° C.) were used as controls. Cells were washed, after incubation with anti-LPG mAb as described above (Indirect Immunofluorescence) and subjected to FACS analysis by binding of the intact LPG.

endothelial cells [3] = test: Endothelial adhesion to monocytes (MM6) assay; conditions: for inhibition of endotoxin-mediated endothelial adhesion to monocytes by LPG fragments: fragments 1-10 μM (2 μM, 1 h in FIG. 21), endotoxin 10 ng/ml 4 h
Experimental: Endothelial cell were isolated from human umbilical veins by an established method as described. […] In all experiments, 2-4 passages of subcultured endothelial cells were used and were grown on fibronectin-precoated 96-well plates for 2-3 days prior to use.
On the day of the experiment, endothelial cells were treated with endotoxin (E. coli, J5, 10 ng/ml) for 4 h. MM6 (1×10^5 cells) were subsequently added to the endotoxin-stimulated endothelial cells. Monocyte adhesion was performed for 20 min at 37° C. Unbound MM6 cells were removed by washing (3×). Adhesion of MM6 onto endothelium was quantitated by counting the bound MM6 cells under a microscope. […] The values of triplicates were averaged, and variations between triplicates were <5%. […] For experiments to examine if LPG could inhibit endotoxin-mediated monocyte adhesion, the endothelial cells were first preincubated with LPG (2 μM) for 1-2 h at 37° C. prior to the addition of endotoxin.

^3H-Lyso-alkyl-PI [^3H-lyso-PI, reference compound]
^3H-lyso-PI bound, of the total input ^3H-lyso-PI (endothelial cells [1]): 32.2±3.1%

lyso-alkyl-phosphatidylinositol [lyso-PI]
competition with intact LPG for binding to endothelial cells [2]: ~30%
Percent Inhibition [2]: 29.9 ± 6.0%
inhibition of endotoxin-mediated endothelial adhesion to monocytes by LPG fragments (endothelial cells [3]): did not inhibit

phosphosaccharide core-lyso-alkyl-phosphatidylinositol [core-PI]
competition with intact LPG for binding to endothelial cells [2]: ~30%
Percent Inhibition [2]: 32.0 ± 5.0%
inhibitory effect of co-addition of fragments (endothelial cells [3]; co-addition of PG (2 μM) and core-PI (2 μM)): No additive inhibitory effect
inhibition of endotoxin-mediated endothelial adhesion to monocytes by LPG fragments (endothelial cells [3]): did not inhibit
